What all share (assay): growth of human tumour cells (NCI), 48 h
In assay [1] the test system is ACHN.
The test system of assay [2] is COLO 205.
Assay [3] has as its system HCT-15.
For assay [4], the system named is HL-60.
Assay [5] deals with K562.
The test system of assay [6] is LOX IMVI.
The test system of assay [7] is MDA-MB-231.
Assay [8] concerns MDA-MB-435.
In assay [9] the test system is Malme-3M.
Assay [10] deals with NCI-H226.
The subject of assay [11] is NCI-H23.
For assay [12], the system named is OVCAR-3.
The test system of assay [13] is OVCAR-4.
In assay [14] the test system is RXF 393.
The test system of assay [15] is SF-268.
Assay [16] has as its system SK-MEL-2.
In assay [17] the test system is SNB-19.
The test system of assay [18] is SW-620.
Assay [19] deals with UACC-62.
Assay [20] concerns SNB-75.

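Briefly, cells in 96-well plates were exposed to five compound concentrations for 48 h, and endpoints were estimated by linear interpolation. Abbreviation: GI50, concentration required for 50% inhibition of growth.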 The source made the active and inactive calls. No stated cut-off is given here; in the data, active = GI50 up to about 1.1 µM and inactive = higher. Some results are limits rather than exact numbers.

`Cn1ncc(NCCn2cnc3c2c(=O)n(C)c(=O)n3C)c(Cl)c1=O`: the GI50 in [1] was > 100 µM (inactive); in assay [2], > 100 µM (inactive); in assay [3], above 100 µM; in [4] it was > 100 µM (inactive); in assay [5], > 100 µM (inactive); in assay [6], > 100 µM (inactive). The GI50 in assay [7], in assay [8], in assay [9], in assay [10], in assay [11] and in assay [12] was > 100 µM (inactive) in each case. For the same compound, the GI50 in assay [13], in assay [14], in assay [15], in assay [16], in [17] and in assay [18] was > 100 µM (inactive) in each case. Besides, in [19], the GI50 is > 100 µM (inactive).

Turning to `NC(=O)c1csc(C2OC(CO)C(O)C2O)n1` (stereo not drawn), the GI50 in [1] was 44.6 µM (inactive); in assay [2] it was 7.45 µM (inactive); in assay [3], 4.14 µM; in [4] it was 8.95 µM (inactive); in [5], 4.26 µM (inactive); in [6] it was 267 µM (inactive). Besides, the GI50 in assay [7] was 84.9 µM (inactive); in [8] it was 57.9 µM (inactive); in [9] it was 1640 µM (inactive); in [10] it was 723 µM (inactive); in assay [11] it was 60.1 µM (inactive); in assay [12], 19.6 µM (inactive). In addition, the GI50 in assay [13] is 13.7 µM (inactive); in assay [14], 126 µM (inactive); in assay [15], 57.5 µM (inactive); in assay [16], 2340 µM (inactive); in [17] it was 38.3 µM (inactive); in assay [18], 13.8 µM (inactive). Also, the GI50 in assay [19] was 42.6 µM (inactive).

With `Cc1cc2c(c(C(=O)NCCC(=O)O)c1)Oc1c(cc(C)cc1C(=O)NCCC(=O)O)S2`, the GI50 is > 100 µM (inactive) in assay [1]; > 100 µM (inactive) in assay [2]; above 100 µM in assay [3]; > 100 µM (inactive) in [5]; > 100 µM (inactive) in assay [6]; > 100 µM (inactive) in [7]. Moreover, the GI50 in assay [8], in assay [9], in assay [10], in assay [11], in [12] and in [13] was > 100 µM (inactive) each time. The GI50 in [14], in assay [15], in [16], in [17], in assay [20] and in assay [18] was > 100 µM (inactive) each time. In addition, the GI50 in assay [19] is > 100 µM (inactive).

On to `O=[N+]([O-])c1cccc(-c2nc(-c3ccccc3)c(-c3ccccc3)[nH]2)c1`, for which the GI50 in [2], in assay [4], in assay [5], in assay [6], in assay [7] and in assay [8] was > 100 µM (inactive) each time. The GI50 in assay [9], in assay [10], in assay [11], in assay [12], in assay [14] and in assay [15] was > 100 µM (inactive) each time. In addition, the GI50 in assay [16], in assay [17], in [18] and in assay [19] was > 100 µM (inactive) throughout.

As for `Cc1ccc(C[N+](C)(C)N)cc1C`, the GI50 was > 10 µM (inactive) in assay [1]; > 10 µM (inactive) in assay [2]; above 10 µM in [3]; > 10 µM (inactive) in assay [4]; > 10 µM (inactive) in assay [5]; > 10 µM (inactive) in assay [6]. Moreover, the GI50 in [7], in assay [8], in assay [9], in [10], in [11] and in [12] was > 10 µM (inactive) throughout. The GI50 in [13], in [14], in assay [15], in assay [17], in [20] and in [18] was > 10 µM (inactive) each time. Further, the GI50 in [19] is > 10 µM (inactive).

Turning to `O=S(=O)(NC1OCCCC1I)c1ccccc1` (stereo not drawn), the GI50 in assay [1] was > 100 µM (inactive); in [2], > 100 µM (inactive); in [3], above 100 µM; in assay [5] it was > 100 µM (inactive); in [6] it was 84.9 µM (inactive); in [7] it was > 100 µM (inactive). The GI50 in assay [8] is > 100 µM (inactive); in [9] it was > 100 µM (inactive); in assay [10], > 100 µM (inactive); in assay [11] it was > 100 µM (inactive); in [12] it was > 100 µM (inactive); in assay [13] it was 89.7 µM (inactive). The GI50 in assay [14], in assay [15], in [16], in [17], in assay [20] and in assay [18] was > 100 µM (inactive) each time. Also, in assay [19], the GI50 is > 100 µM (inactive).

Take `CC1CN=C(Nc2ccccc2)S1` (stereo not drawn): the GI50 in [1] was > 100 µM (inactive); in [2], > 100 µM (inactive); in [3] it was above 100 µM; in [4], > 100 µM (inactive); in assay [5], > 100 µM (inactive); in assay [6], > 100 µM (inactive). Also, the GI50 in assay [7], in assay [8], in assay [9], in [10], in assay [11] and in [12] was > 100 µM (inactive) throughout. Also, the GI50 in assay [14], in assay [15], in [16], in assay [17], in assay [20] and in assay [18] was > 100 µM (inactive) throughout. Also, in assay [19], the GI50 is > 100 µM (inactive).

As for `C[N+]1(C)C2Cc3ccccc3C1Cc1ccccc12`, the GI50 in [1] was > 100 µM (inactive); in assay [2], > 100 µM (inactive); in assay [3] it was above 100 µM; in assay [4], > 100 µM (inactive); in [6] it was > 100 µM (inactive); in assay [7], > 100 µM (inactive). For the same compound, the GI50 in assay [8] was > 100 µM (inactive); in assay [9], > 100 µM (inactive); in assay [10] it was > 100 µM (inactive); in assay [11], > 100 µM (inactive); in [12], 90.8 µM (inactive); in assay [13], > 100 µM (inactive). Besides, the GI50 in [14] was > 100 µM (inactive); in assay [15], > 100 µM (inactive); in assay [16], > 100 µM (inactive); in [17], > 100 µM (inactive); in assay [18], > 100 µM (inactive); in assay [19] it was 71.6 µM (inactive).

Source of the values: ChEMBL document CHEMBL1201862, “PubChem BioAssay data set” (2004).
